≈ marks a conversion by molar mass, not a printed value. Where a SMILES comes first, the peptide text is derived from it. Bridges are numbered along the chain shown (N, C = ends). Roman numbers before positions name the chains, in order. [ ]: non-standard residue; d: D form. Thr(ol) = C[C@@H](O)[C@H](N)CO; Pen = CC(C)(S)[C@H](N)C(=O)O; Tle = CC(C)(C)[C@H](N)C(=O)O; Hiv = CC(C)[C@H](O)C(=O)O; dDab = NCC[C@@H](N)C(=O)O; hSer = N[C@@H](CCO)C(=O)O; Orn = NCCC[C@H](N)C(=O)O; Dab = NCC[C@H](N)C(=O)O; Dap = NC[C@H](N)C(=O)O
Experiments:
Assay type in all cases: cell-based
[1] = tested on: human red blood cells (hRBC); test: Hemolysis; settings: red cells of human, 1 h, 200
Outline: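 Percent hemolysis relative to 2% Triton X-100 (100%) and PBS/10% water (0%), from blank-corrected OD540 of diluted supernatants. Peptides tested at 200 μg/mL against 20% (v/v) washed human erythrocytes, 1 h, 37° C, shaking at 300 rpm.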

[2] = tested on: Acinetobacter baumannii 872842; settings: 872842
Outline: (§1)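 Two-fold peptide dilutions in polysorbate 80-containing (0.002% final) cation-adjusted Mueller-Hinton II broth were inoculated with about 10^6 CFU/mL. The MIC was taken as the lowest concentration, in μg/mL, preventing visible growth at 18-20 hours and 35° C.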

[3] = tested on: Escherichia coli ATCC 25922; settings: ATCC 25922
Outline: as §1

[4] = tested on: Klebsiella pneumoniae SSI #3010; settings: SSI #3010
Outline: as §1

[5] = tested on: Klebsiella pneumoniae 968733; settings: 968733
Outline: as §1

[6] = tested on: Enterobacter cloacae 848840; settings: 848840
Outline: as §1

[7] = tested on: Pseudomonas aeruginosa ATCC 27853; settings: ATCC 27853
Outline: as §1

[8] = tested on: Acinetobacter baumannii DSM 30008; settings: DSM 30008
Outline: as §1

Escherichia coli 926415 = settings: 926415
Outline: as §1

Row | SMILES | Hemolysis at 200 μg/mL [1] [%] | MIC [2] [µg/mL] | MIC [3] [µg/mL] | MIC [4] [µg/mL] | MIC [5] [µg/mL] | MIC [6] [µg/mL] | MIC [7] [µg/mL] | MIC [8] [µg/mL] | MIC (Escherichia coli 926415) [µg/mL] | Escherichia coli ATCC 25922 MIC [3] [µg/mL] | Klebsiella pneumoniae SSI #3010 MIC [4] [µg/mL] | Pseudomonas aeruginosa ATCC 27853 MIC [7] [µg/mL] | Acinetobacter baumannii DSM 30008 MIC [8] [µg/mL]
1 | CC(=O)N[C@H](C(=O)N[C@H](C(=O)N[C@@H](Cc1ccc(O)cc1)C(=O)N[C@H]1CSSC(C)(C)[C@@H](C(=O)N[C@H](C(=O)N[C@@H](CO)C(=O)N[C@H](C(N)=O)[C@@H](C)O)C(C)(C)C)NC(=O)[C@H](Cc2c[nH]c3ccccc23)NC(=O)[C@H](CCN)NC(=O)[C@@H](CCN)NC(=O)[C@H](CCC(=O)N[C@@H](CCN)C(=O)N[C@H](C(=O)N[C@@H](CN)C(=O)N[C@H]2CCNC(=O)[C@H]([C@@H](C)O)NC(=O)[C@H](CCN)NC(=O)[C@H](CCN)NC(=O)[C@H]([C@@H](C)O)NC(=O)[C@@H](CC(C)C)NC(=O)[C@H](CCN)NC2=O)[C@@H](C)O)NC1=O)[C@@H](C)O)C(C)C [Ex. 224] (I: Ac-VTYCE[dDab][Dab]W[Pen][Tle]ST-NH2 / II: [Dab]T[Dap][Dab][Dab][dL]T[Dab][Dab]T; disulfide I:4-I:9; amide I:5-II:N; lactam II:4-II:C) | 1 | 0.0625 (≈ 0.0254 µM) | 0.03125 (≈ 0.0127 µM) | 0.125 (≈ 0.0509 µM) | 0.25 (≈ 0.102 µM) | 0.125 (≈ 0.0509 µM) | 0.125 (≈ 0.0509 µM) | 0.0625 (≈ 0.0254 µM) | 0.125 (≈ 0.0509 µM) | – | – | – | –
2 | CC(C)C[C@@H]1NC(=O)[C@@H](CC(C)C)NC(=O)[C@H](CCN)NC(=O)[C@@H](NC(=O)[C@H](CCN)NC(=O)[C@@H](NC(=O)[C@H](CCN)NC(=O)CC[C@@H]2NC(=O)[C@@H](NC(=O)[C@H](Cc3ccc(O)cc3)NC(=O)[C@@H](NC(=O)[C@@H](O)C(C)C)[C@@H](C)O)C(C)(C)SSC[C@@H](C(=O)N[C@H](C(=O)N[C@@H](C)C(=O)N[C@H](CO)[C@@H](C)O)C(C)(C)C)NC(=O)[C@H](Cc3c[nH]c4ccccc34)NC(=O)[C@H](CCO)NC(=O)[C@@H](CCN)NC2=O)[C@@H](C)O)CCNC(=O)[C@H]([C@@H](C)O)NC(=O)[C@H](CCN)NC(=O)[C@H](CCN)NC1=O [Ex. 194] (I: H-[Hiv]TY[Pen]E[dDab][hSer]WC[Tle]A[Thr(ol)] / II: [Dab]T[Dab][Dab][Dab][dL]L[Dab][Dab]T; disulfide I:4-I:9; amide I:5-II:N; lactam II:4-II:C) | <1 | 0.25 (≈ 0.104 µM) | 0.0625 (≈ 0.0259 µM) | 0.0625 (≈ 0.0259 µM) | 0.25 (≈ 0.104 µM) | 0.125 (≈ 0.0518 µM) | 0.125 (≈ 0.0518 µM) | 0.0625 (≈ 0.0259 µM) | 0.5 (≈ 0.207 µM) | – | – | – | –
3 | CC(C)C[C@@H]1NC(=O)[C@@H](CC(C)C)NC(=O)[C@H](CCN)NC(=O)[C@@H](NC(=O)[C@H](CCN)NC(=O)[C@@H](NC(=O)[C@H](CCN)NC(=O)CC[C@@H]2NC(=O)[C@@H]3CSSC[C@H](NC(=O)[C@H](Cc4c[nH]c5ccccc45)NC(=O)[C@H](CCO)NC(=O)[C@@H](CCN)NC2=O)C(=O)N[C@@H](C(C)C)C(=O)N[C@H](C(=O)N[C@@H](CO)C(N)=O)CSSC[C@H](NC(=O)[C@@H](N)C(C)C)C(=O)N[C@@H](Cc2ccc(O)cc2)C(=O)N3)[C@@H](C)O)CCNC(=O)[C@H]([C@@H](C)O)NC(=O)[C@H](CCN)NC(=O)[C@H](CCN)NC1=O [Ex. 176] (I: H-VCYCE[dDab][hSer]WCVCS-NH2 / II: [Dab]T[Dab][Dab][Dab][dL]L[Dab][Dab]T; disulfide I:2-I:11, I:4-I:9; amide I:5-II:N; lactam II:4-II:C) | <1 | 0.125 (≈ 0.052 µM) | 0.0625 (≈ 0.026 µM) | 0.125 (≈ 0.052 µM) | 0.25 (≈ 0.104 µM) | 0.5 (≈ 0.208 µM) | 0.125 (≈ 0.052 µM) | 0.125 (≈ 0.052 µM) | 0.25 (≈ 0.104 µM) | – | – | – | –
4 | CC(C)C[C@@H]1NC(=O)[C@@H](CC(C)C)NC(=O)[C@H](CCN)NC(=O)[C@@H](NC(=O)[C@H](CCN)NC(=O)[C@H](CO)NC(=O)[C@H](CCN)NC(=O)CC[C@@H]2NC(=O)[C@H](CN)NC(=O)[C@H](Cc3ccc(O)cc3)NC(=O)[C@@H](NC(=O)[C@@H](O)C(C)C)CSSC[C@@H](C(=O)N[C@H](CO)[C@@H](C)O)NC(=O)[C@H](C(C)(C)C)NC(=O)[C@H](CO)NC(=O)[C@H](Cc3c[nH]c4ccccc34)NC(=O)[C@H]([C@@H](C)O)NC(=O)[C@@H](CCN)NC2=O)CCNC(=O)[C@H]([C@@H](C)O)NC(=O)[C@H](CCN)NC(=O)[C@H](CCN)NC1=O [Ex. 106] (I: H-[Hiv]CY[Dap]E[dDab]TWS[Tle]C[Thr(ol)] / II: [Dab]S[Dab][Dab][Dab][dL]L[Dab][Dab]T; disulfide I:2-I:11; amide I:5-II:N; lactam II:4-II:C) | <1 | 0.25 (≈ 0.105 µM) | 0.0625 (≈ 0.0263 µM) | 0.125 (≈ 0.0527 µM) | 0.25 (≈ 0.105 µM) | 0.25 (≈ 0.105 µM) | 0.125 (≈ 0.0527 µM) | 0.0625 (≈ 0.0263 µM) | 0.125 (≈ 0.0527 µM) | – | – | – | –
5 | CC(C)C[C@@H]1NC(=O)[C@@H](CC(C)C)NC(=O)[C@H](CCN)NC(=O)[C@@H](NC(=O)[C@H](CCN)NC(=O)[C@@H](NC(=O)[C@H](CCN)NC(=O)CC[C@@H]2NC(=O)[C@H](CN)NC(=O)[C@H](Cc3ccc(O)cc3)NC(=O)[C@@H](NC(=O)[C@@H](O)C(C)C)CSSC[C@@H](C(=O)N[C@H](CO)[C@@H](C)O)NC(=O)[C@H](C(C)(C)C)NC(=O)[C@H](CO)NC(=O)[C@H](Cc3c[nH]c4ccccc34)NC(=O)[C@H](CCO)NC(=O)[C@@H](CCN)NC2=O)[C@@H](C)O)CCNC(=O)[C@H]([C@@H](C)O)NC(=O)[C@H](CCN)NC(=O)[C@H](CCN)NC1=O [Ex. 79] (I: H-[Hiv]CY[Dap]E[dDab][hSer]WS[Tle]C[Thr(ol)] / II: [Dab]T[Dab][Dab][Dab][dL]L[Dab][Dab]T; disulfide I:2-I:11; amide I:5-II:N; lactam II:4-II:C) | <1 | 0.0625 (≈ 0.0262 µM) | 0.0625 (≈ 0.0262 µM) | 0.0625 (≈ 0.0262 µM) | 0.0625 (≈ 0.0262 µM) | 0.0625 (≈ 0.0262 µM) | 0.125 (≈ 0.0524 µM) | 0.03125 (≈ 0.0131 µM) | 0.0625 (≈ 0.0262 µM) | – | – | – | –
6 | CC(=O)N[C@H](C(=O)N[C@H]1CSSC[C@@H](C(=O)N[C@@H](CO)C(N)=O)NC(=O)[C@H](C(C)C)NC(=O)[C@H](CO)NC(=O)[C@H](Cc2c[nH]c3ccccc23)NC(=O)[C@@H](CCC(=O)N[C@@H](CCN)C(=O)N[C@H](C(=O)N[C@@H](CN)C(=O)N[C@H]2CCNC(=O)[C@H]([C@@H](C)O)NC(=O)[C@H](CCN)NC(=O)[C@H](CCN)NC(=O)[C@H](CC(C)C)NC(=O)[C@@H](CC(C)C)NC(=O)[C@H](CCN)NC2=O)[C@@H](C)O)NC(=O)[C@@H](CCN)NC(=O)[C@H](CCCN)NC(=O)[C@H](CO)NC(=O)[C@H](Cc2ccc(O)cc2)NC1=O)C(C)C [Ex. 366] (I: Ac-VCYS[Orn][dDab][dE]WSVCS-NH2 / II: [Dab]T[Dap][Dab][Dab][dL]L[Dab][Dab]T; disulfide I:2-I:11; amide I:7-II:N; lactam II:4-II:C) | 4 | 0.5 (≈ 0.207 µM) | – | – | 2 (≈ 0.829 µM) | 8 (≈ 3.32 µM) | – | – | 0.5 (≈ 0.207 µM) | 0.125 | 0.25 | 0.25 | 0.25
7 | CC(C)C[C@@H]1NC(=O)[C@@H](CC(C)C)NC(=O)[C@H](CCN)NC(=O)[C@@H](NC(=O)[C@H](CCN)NC(=O)[C@@H](NC(=O)[C@H](CCN)NC(=O)CC[C@@H]2NC(=O)[C@H](CCN)NC(=O)[C@H](Cc3ccc(O)cc3)NC(=O)[C@@H](NC(=O)[C@@H](O)C(C)C)CSSC[C@@H](C(=O)N[C@H](CO)[C@@H](C)O)NC(=O)[C@H](C(C)(C)C)NC(=O)[C@H](CO)NC(=O)[C@H](Cc3c[nH]c4ccccc34)NC(=O)[C@H](CCO)NC(=O)[C@@H](CCN)NC2=O)[C@@H](C)O)CCNC(=O)[C@H]([C@@H](C)O)NC(=O)[C@H](CCN)NC(=O)[C@H](CCN)NC1=O [Ex. 74] (I: H-[Hiv]CY[Dab]E[dDab][hSer]WS[Tle]C[Thr(ol)] / II: [Dab]T[Dab][Dab][Dab][dL]L[Dab][Dab]T; disulfide I:2-I:11; amide I:5-II:N; lactam II:4-II:C) | <1 | 0.0625 (≈ 0.026 µM) | 0.0625 (≈ 0.026 µM) | 0.0625 (≈ 0.026 µM) | 0.0625 (≈ 0.026 µM) | 0.125 (≈ 0.0521 µM) | 0.25 (≈ 0.104 µM) | 0.0625 (≈ 0.026 µM) | 0.25 (≈ 0.104 µM) | – | – | – | –

From US11629171B2, “Beta-hairpin peptidomimetics” (POLYPHOR AG, priority 2017, dated 2023)
